Laboratory results as given in patent US9289429B2, “Compounds and methods for inhibiting phosphate transport” (Ardelyx, Inc., priority 2010, dated 2016).

Key:
rat NaP2b (SLC34A2) = target: T1, rat NaP2b (SLC34A2) (Rattus norvegicus, UniProt Q9JJ09); experiment: NaP2b-mediated Pi transport (33P uptake) in transfected HEK293 cells, rat transporter; type: cell-based; conditions: HEK293 cells transfected with rat NaP2b, 33P phosphate uptake, 100 uM KH2PO4; read-out: pIC50 range for rat Nap2b (converted)
T1 construct: host or cells: HEK293
T1 sequence (Q9JJ09 1-695): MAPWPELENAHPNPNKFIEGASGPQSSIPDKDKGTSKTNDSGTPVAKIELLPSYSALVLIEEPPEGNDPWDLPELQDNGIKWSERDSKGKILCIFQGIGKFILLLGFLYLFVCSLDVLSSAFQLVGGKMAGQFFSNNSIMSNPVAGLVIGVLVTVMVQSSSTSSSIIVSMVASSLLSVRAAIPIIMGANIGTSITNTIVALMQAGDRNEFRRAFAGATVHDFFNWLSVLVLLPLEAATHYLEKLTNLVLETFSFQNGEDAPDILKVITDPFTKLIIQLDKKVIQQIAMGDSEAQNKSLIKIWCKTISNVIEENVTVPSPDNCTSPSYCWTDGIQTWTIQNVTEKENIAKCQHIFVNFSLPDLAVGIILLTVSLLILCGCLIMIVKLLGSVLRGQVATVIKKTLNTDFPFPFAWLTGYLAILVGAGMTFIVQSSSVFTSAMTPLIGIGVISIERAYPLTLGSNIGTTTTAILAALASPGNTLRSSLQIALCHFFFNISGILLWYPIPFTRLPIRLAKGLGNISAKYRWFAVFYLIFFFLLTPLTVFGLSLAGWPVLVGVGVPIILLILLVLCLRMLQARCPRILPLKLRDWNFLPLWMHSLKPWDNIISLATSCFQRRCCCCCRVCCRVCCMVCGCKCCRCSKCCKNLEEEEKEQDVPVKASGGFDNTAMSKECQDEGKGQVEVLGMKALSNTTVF
Experimental: HEK293 cells were obtained from the American Type Culture collection and propagated per their instructions. Expression clones for rat and human NaP2b (SLC34A2) were obtained from Open Biosystems (Catalog numbers MRN1768-9510282, and MHS1010-99823026, respectively). The sequence of the human protein was mutated to insert a threonine after residue 37, and to introduce a N39D mutation.
The rate of phosphate (Pi) uptake into HEK293 cells was measured using a modification of the method described by Mohrmann et al. (Mohrmann, I., Mohrmann, M., Biber, J., and Murer, H. (1986) Am. J. Phys. 250(3 Pt 1):G323-30.) Transfected HEK293 cells were treated with a pharmacological agent to minimize endogenous PiT-mediated phosphate transport activity, such that the only remaining sodium-dependent phosphate transport activity is that which was bestowed by introduction of the NaP2b genes.
Cells were seeded into 96-well plates at 25,000 cells/well and cultured overnight. Lipofectamine 2000 (Invitrogen) was used to introduce the NaP2b cDNA, and the cells were allowed to approach confluence during a second overnight incubation. […] Cells were then overlayed with either choline uptake buffer or sodium uptake buffer (14 mM Tris, 137 mM sodium chloride, 5.4 mM KCl, 2.8 mM CaCl2, 1.2 mM MgSO4, 100 uM KH2PO4, PiT-silencing agent, 1 mg/mL Bovine Serum Albumin, pH 7.4) containing 6-9 uCi/mL ^33P orthophosphoric acid (Perkin Elmer) and test compound. Each compound was tested at twelve concentrations ranging from 0.1 nM to 30 uM. Assays were run in duplicate.
After incubation for 3-30 minutes at room temperature, assay mixtures were removed, and the cells were washed twice with ice cold stop solution (137 mM sodium chloride, 14 mM Tris, pH 7.4). Cells were lysed by addition of 20 μL 0.1% Tween 80 followed by 100 μL scintillation fluid, and counted using a TopCount (Perkin Elmer).
pIC50 (the negative log of the IC50) values of the test compounds were calculated using GraphPad Prism.

Sprague-Dawley rats = experiment: In vivo bolus phosphate challenge; conditions: rat, oral, Drug Dose 30 (unit not given), serum 30 min post phosphate bolus
Experimental: By pretreating animals with a low phosphorus diet followed by the subsequent dosing of a phosphorus bolus, serum phosphorus levels were monitored after 30 minutes as a surrogate for intestinal phosphorus absorption. […] The in vivo bolus phosphorus challenge model used here mimics this model in rats.
Male, 7-week-old Sprague-Dawley rats (Charles-River laboratories international, Hollister, Calif.) were allowed to acclimate for a minimum of 3 days before switching to a synthetic low-phosphorus diet (TD.85010, Harlan Teklad, Madison, Wis.) which contains 0.1% phosphorus and 0.6% calcium. At day 5, testing compounds or vehicle alone (as indicated) were orally administered at the indicated dose in a volume of 5 ml/kg, followed by a bolus gavage of monobasic sodium phosphate (1 mmol in 1 ml) 15 min after compound dosing. Serum was collected via retroorbital bleeding 30 min post phosphate bolus and phosphate levels were determined utilizing an ACE ALERA blood chemistry analyzer (Alfa Wassermann Diagnostic Technologies, West Caldwell, N.J.).
The extent of inhibition by test compounds on the elevation of serum phosphate levels in response to the bolus of phosphate is shown in Table 3 (data are expressed as % Inhibition, with 6-10 animals per data point). The differences between groups were evaluated by one-way analysis of variance with Dunnett's post hoc tests.

[1] = Determination of compound Cmax and AUC after oral gavage; type: in vivo; conditions: Sprague-Dawley, rat plasma, actual oral dose 8.9 mg/kg (Example 11) or 10 mg/kg (Example 2)
Experimental: Sprague-Dawley rats were orally gavaged with test article at a nominal dose of 2.5 or 10 mg/kg and blood was collected at 0.5, 1, 2 and 4 h. Blood samples were processed to plasma using K2EDTA as an anticoaglulant. Plasma samples were treated with acetonitrile containing an internal standard, precipitated proteins removed by centrifugation. Supernatants were analyzed by LC-MS/MS and compound concentrations were determined by interpolated from a standard curve prepared in plasma. All compounds were orally dosed at the dosage shown, and pharmacokinetic parameters determined

[2] = Fecal recovery of orally administered compounds; type: in vivo; conditions: rat, oral gavage, feces collected until 48 hr after dosing, same animals as Example 22
Experimental: Quantitative determination of test compound level in feces after oral gavage was performed using the same set of animals used to determine test compound concentration in plasma (Example 22). The animals were kept in metabolic cages and feces were collected from the time of dosing until 48 hr after dosing. Upon collection, feces was dried by lyophilization and ground to a visually homogenous powder. Duplicate samples of ground feces from each individual animal were weighed out and extracted using organic solvent. Extracted samples were then diluted into mobile phase and test compound levels were quantitatively determined by LC-MS/MS analysis as described in “Example 22” except that the standard curve was prepared in a feces matrix. Extraction conditions were not optimized for individual compounds, and thus may represent a minimal level of recovery.

Structure (SMILES) | IC50 (rat NaP2b (SLC34A2)) | % Inhibition of Serum P elevation (Sprague-Dawley rats) | Cmax ([1]; LLOQ 5 ng/mL) | AUC ([1]; samples 0.5-4 h) | % recovered in feces [2]
O=C(O)CCSCc1cccc(C(=O)Nc2ccc(N3CCCCC3)cc2C(=O)Nc2cnc(-c3cccc(C(F)(F)F)c3)nc2)c1 [Example 4, 3-((3-((4-(Piperidin-1-yl)-2-((2-(3-(trifluoromethyl)phenyl)pyrimidin-5-yl)carbamoyl)phenyl)carbamoyl)benzyl)thio)propanoic acid] | 1 to 7.94 µM | 11% | – | – | –
O=C(O)CCSCc1cccc(C(=O)Nc2ccc(N3CCCCC3)cc2C(=O)Nc2cnc(-c3ccccc3)nc2)c1 [Example 2, 3-((3-((2-((2-Phenylpyrimidin-5-yl)carbamoyl)-4-(piperidin-1-yl)phenyl)carbamoyl)benzyl)thio)propanoic acid] | 1 to 7.94 µM | – | 645 ng/mL | 822 ng·h/mL | 16%
